Reference: patent US20250214942A1, “INHIBITORS OF RECEPTOR INTERACTING PROTEIN KINASE I FOR THE TREATMENT OF DISEASE” (Board of Regents, The University of Texas System, priority 2019, published 2025)

These molecules were tested on human monocytic cell line U937 (assay: Human U937 cellular necroptosis assay (TNFalpha + z-VAD-FMK, Cell Titer-Glo viability)). Settings: Homo sapiens, U-937, 22 h, U937 cells, 25 ng/mL human TNFalpha + 25 μM z-VAD-FMK, read-out: hU937 Avg IC50.
Format: cell-based
Summary of the method: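 Cells resuspended in phenol red-free RPMI with 10% FBS, stimulated with 25 ng/mL human TNFalpha plus 25 μM z-VAD-FMK, then given serially diluted compound for 22 h at 37° C, 5% CO2. Viability by Cell Titer-Glo 2.0 luminescence; IC50 from four-parameter logistic fit, averaged across runs.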

Structure (SMILES) | IC50 [µM]
N#Cc1cc2cn(CC34CC(C(=O)N5N=CCC5c5cc(F)cc(F)c5)(C3)C4)nc2cc1Cl (stereo not drawn) [Example 220, 6-chloro-2-((3-(5-(3,5-difluorophenyl)-4,5-dihydro-1H-pyrazole-1-carbonyl)-bicyclo[1.1.1]pentan-1-yl)-methyl)-2H-indazole-5-carbonitrile] | 0.312
CC1CC(c2cccc(F)c2)N(C(=O)C23CC(Cn4ncc5cc(C#N)ccc54)(C2)C3)C1 (stereo not drawn) [Example 257, 1-((3-(2-(3-fluorophenyl)-4-methylpyrrolidine-1-carbonyl)-bicyclo[1.1.1]pentan-1-yl)-methyl)-1H-indazole-5-carbonitrile] | 2.08
N#Cc1cnc(OCC23CC(C(=O)NCc4cccc(F)c4F)(C2)C3)cn1 [Example 296, 3-(((5-cyanopyrazin-2-yl)-oxy)methyl)-N-(2,3-difluoro-benzyl)bicyclo[1.1.1]pentane-1-carboxamide] | 5.85
N#Cc1cnc(OCC23CC(C(=O)N4N=CCC4c4cc(F)ccc4F)(C2)C3)cn1 (stereo not drawn) [Example 268, 5-((3-(5-(2,5-difluorophenyl)-4,5-dihydro-1H-pyrazole-1-carbonyl)bicyclo[1.1.1]pentan-1-yl)methoxy)pyrazine-2-carbonitrile] | 0.0039
N#Cc1ccc2c(cnn2CC23CC(C(=O)N4N=CCC4c4ccc(F)c(F)c4)(C2)C3)c1 (stereo not drawn) [Example 242, 1-((3-(5-(3,4-difluorophenyl)-4,5-dihydro-1H-pyrazole-1-carbonyl)bicyclo[1.1.1]pentan-1-yl)methyl)-1H-indazole-5-carbonitrile] | 0.02
N#Cc1cnc(OCC23CC(C(=O)N4N=CCC4c4c(F)cccc4F)(C2)C3)cn1 (stereo not drawn) [Example 307, 5-((3-(5-(2,6-difluorophenyl)-4,5-dihydro-1H-pyrazole-1-carbonyl)bicyclo[1.1.1]pentan-1-yl)methoxy)pyrazine-2-carbonitrile] | 0.0087
Cc1ccc2c(cnn2CC23CC(C(=O)N4N=CCC4c4cc(F)cc(F)c4)(C2)C3)n1 (stereo not drawn) [Example 165, (5-(3,5-difluorophenyl)-4,5-dihydro-1H-pyrazol-1-yl)(3-((5-methyl-1H-pyrazolo[4,3-b]pyridin-1-yl)methyl)-bicyclo[1.1.1]pentan-1-yl)methanone] | 0.193
N#Cc1ccc2c(cnn2CC23CC(C(=O)N4C[C@H](O)C[C@H]4c4cccc(F)c4)(C2)C3)c1 (single isomer, unassigned) [Example 263] | 9.5
N#Cc1ccc2c(cnn2CC23CC(C(=O)N4N=CCC4c4cc(F)c(Br)c(F)c4)(C2)C3)c1 (stereo not drawn) [Example 241, 1-((3-(5-(4-bromo-3,5-difluorophenyl)-4,5-dihydro-1H-pyrazole-1-carbonyl)-bicyclo[1.1.1]pentan-1-yl)-methyl)-1H-indazole-5-carbonitrile] | 0.018
N#Cc1ccc2nn(CC34CC(C(=O)N5N=CCC5c5cncc(F)c5)(C3)C4)cc2c1 (stereo not drawn) [Example 127, 2-((3-(5-(5-fluoropyridin-3-yl)-4,5-dihydro-1H-pyrazole-1-carbonyl)bicyclo[1.1.1]-pentan-1-yl)methyl)-2H-indazole-5-carbonitrile] | 1.26
Cc1ccc(C2CC=NN2C(=O)C23CC(COc4cnc(C#N)cn4)(C2)C3)cc1F (stereo not drawn) [Example 269, 5-((3-(5-(3-fluoro-4-methyl-phenyl)-4,5-dihydro-1H-pyrazole-1-carbonyl)bicyclo-[1.1.1]pentan-1-yl)-methoxy)pyrazine-2-carbonitrile] | 0.0054
Cc1ccc(C2CC=NN2C(=O)C23CC(COc4ccc(C#N)cn4)(C2)C3)cc1F (stereo not drawn) [Example 272, 6-((3-(5-(3-fluoro-4-methyl-phenyl)-4,5-dihydro-1H-pyrazole-1-carbonyl)bicyclo-[1.1.1]pentan-1-yl)-methoxy)nicotinonitrile] | 0.024
C[C@H](NC(=O)C12CC(Cn3ncc4cc(C#N)ccc43)(C1)C2)c1c(F)cccc1Cl [Example 256, (S)-N-(1-(2-chloro-6-fluoro-phenyl)ethyl)-3-((5-cyano-1H-indazol-1-yl)methyl)bicyclo-[1.1.1]pentane-1-carboxamide] | 0.895
N#Cc1cnc(OCC23CC(C(=O)N4N=CCC4c4cc(F)cc(F)c4)(C2)C3)c(Cl)c1 (stereo not drawn) [Example 319, 5-chloro-6-((3-(5-(3,5-difluorophenyl)-4,5-dihydro-1H-pyrazole-1-carbonyl)-bicyclo[1.1.1]pentan-1-yl)-methoxy)nicotinonitrile] | 0.021
N#Cc1ccc(OCC23CC(C(=O)N4N=CCC4c4ncc(F)cc4F)(C2)C3)nc1 (stereo not drawn) [Example 291, 6-((3-(5-(3,5-difluoropyridin-2-yl)-4,5-dihydro-1H-pyrazole-1-carbonyl)bicyclo-[1.1.1]pentan-1-yl)methoxy)-nicotinonitrile] | 0.62
N#Cc1cncc(C2CC=NN2C(=O)C23CC(COc4cnc(C#N)cn4)(C2)C3)c1 (stereo not drawn) [Example 284, 5-((3-(5-(5-cyanopyridin-3-yl)-4,5-dihydro-1H-pyrazole-1-carbonyl)bicyclo[1.1.1]pentan-1-yl)methoxy)pyrazine-2-carbonitrile] | 0.161
N#Cc1ccc2c(cnn2CC23CC(C(=O)N4N=CCC4c4ncc5ccccn45)(C2)C3)c1 (stereo not drawn) [Example 247, 1-((3-(5-(imidazo[1,5-a]-pyridin-3-yl)-4,5-dihydro-1H-pyrazole-1-carbonyl)bicyclo[1.1.1]pentan-1-yl)methyl)-1H-indazole-5-carbonitrile] | 0.081
N#Cc1ccc(OCC23CC(C(=O)N4N=CCC4c4cc(F)ccc4F)(C2)C3)nc1 (stereo not drawn) [Example 308, 6-((3-(5-(2,5-difluorophenyl)-4,5-dihydro-1H-pyrazole-1-carbonyl)bicyclo[1.1.1]pentan-1-yl)methoxy)nicotinonitrile] | 0.011
N#Cc1ccc(OCC23CC(C(=O)N4N=CCC4c4ccccc4)(C2)C3)nc1 (stereo not drawn) [Example 276, 6-((3-(5-phenyl-4,5-dihydro-1H-pyrazole-1-carbonyl)-bicyclo[1.1.1]pentan-1-yl)-methoxy)nicotinonitrile] | 0.076
N#Cc1nc(C2CC2)n(CC23CC(C(=O)N4N=CCC4c4cc(F)cc(F)c4)(C2)C3)n1 (stereo not drawn) [Example 221, 5-cyclopropyl-1-((3-(5-(3,5-difluorophenyl)-4,5-dihydro-1H-pyrazole-1-carbonyl)-bicyclo[1.1.1]pentan-1-yl)-methyl)-1H-1,2,4-triazole-3-carbonitrile] | 0.992
Cc1ccc(C2CC=NN2C(=O)C23CC(COc4ccc(C#N)cn4)(C2)C3)cc1 (stereo not drawn) [Example 273, 6-((3-(5-(p-tolyl)-4,5-dihydro-1H-pyrazole-1-carbonyl)-bicyclo[1.1.1]pentan-1-yl)-methoxy)nicotinonitrile] | 0.03
N#Cc1cnc(OCC23CC(C(=O)N4N=CCC4c4cnccn4)(C2)C3)cn1 (stereo not drawn) [Example 274, 5-((3-(5-(pyrazin-2-yl)-4,5-dihydro-1H-pyrazole-1-carbonyl)bicyclo[1.1.1]pentan-1-yl)methoxy)pyrazine-2-carbonitrile] | 0.061

Same assay, conditions: U937 cells, 25 ng/mL human TNFalpha + 25 μM z-VAD-FMK, 22 h; read-out: hU937 Avg IC50

Structure (SMILES) | IC50 [µM]
N#Cc1cnc(OCC23CC(C(=O)NCc4ccccc4F)(C2)C3)cn1 [Example 293, 3-(((5-cyanopyrazin-2-yl)oxy)-methyl)-N-(2-fluorobenzyl)-bicyclo[1.1.1]pentane-1-carboxamide] | 1.5
N#Cc1cnc(OCC23CC(C(=O)NCc4ccccc4F)(C2)C3)cn1 [Example 300, 3-(((5-cyanopyrazin-2-yl)-oxy)methyl)-N-(2-fluoro-benzyl)bicyclo[1.1.1]pentane-1-carboxamide] | 7.42
